One experiment has as its system anti-Sm antibodies. The experiment in a line: Epitope-mapping with immobilized oligopeptides (peptide arrays) probed with anti-Sm sera. The conditions noted are these: for number of anti-Sm sera recognizing the peptide: panel of five anti-Sm sera (#36, #37, #31, #84, #Sm), serum 1:100, ECL detection. Type of experiment: binding, human. The source says: The published sequences of SmD1, P13641, (Rokeach et al., 1988) and SmD3, P43331, (Lehmeier et al., 1994) were used to synthesize overlapping 15 mer peptides with a pipetting robot according to the protocol described by Gausepohl and Behn (2002). The C-terminal extensions of both polypeptides were synthesized with an offset of 2 amino acids (13 amino acids overlap). Each arginine containing peptide was synthesized as three variants, with natural arginine, with sDMA or with asymmetrical dimethylarginine (asDMA) at the respective positions. Later on, a highly reactive peptide of SmD3 was synthesized with certain combinations of natural arginine and sDMA. Following completion of the peptide synthesis non-specific binding sites were blocked by over-night incubation of the membranes in blocking buffer (BB) at room temperature (RT). After one washing step membranes were incubated with serum samples at a dilution of 1:100 in BB for 2 h at RT. Unbound antibodies were removed by three washing steps. For detection peroxidase conjugated goat-anti-human IgG antibody was diluted 1:5000 in BB and incubated for 75 min (RT). Superfluous secondary antibodies were removed by three washing steps. Finally, bound antibodies were visualized using the enhanced chemoluminiscence (ECL) detection-system.
Epitope fine-mapping of the C-terminal extensions of SmD1 and D3. To evaluate the effect of arginine-dimethylation on the antigenicity of SmD1 and SmD3 and to map relevant epitopes on both polypeptides a panel of anti-Sm sera was tested with peptide arrays (15 mer, 2 offset) covering the C-terminal region of SmD1 (P13641) and SmD3 (P43331).

In another experiment the test system is Lupus-prone mice. The settings on record: injection; peptide fused to a carrier protein; Riemekasten et al., 2001; cited from earlier work.

Non-standard residues stand in square brackets, D forms with d. No end group written: not given here. Arg(Me2s) = CN=C(NC)NCCC[C@H](N)C(=O)O

Turning to “AAsdRGsdRGsdRGMGsdRGNIF (AA[Arg(Me2s)]G[Arg(Me2s)]G[Arg(Me2s)]GMG[Arg(Me2s)]GNIF) [peptide no. 77, SmD3 aa 108-122 with all arginines as sDMA]”, the entries for the “number of anti-Sm sera recognizing the peptide” value with anti-Sm antibodies and in the experiment with anti-Sm antibodies (listed as SEQ ID NO: 3) were “three out of five” and “Three out of five”, respectively.
Take “KREAVAGRGRGRGRG [compound 10, SmD1 array peptide; text describes glycine and DMA repeats]”: the “binding of anti-Sm antibodies (in words)” value in the experiment on anti-Sm antibodies (anti-SmD sera #36, #37, #31, #84, #Sm, peptide arrays) is “strong reactivity”.
Turning to “synthetic peptide corresponding to the C-terminal extension of SmD1: literature SmD1 aa 83-119 peptide (Riemekasten et al., 1998) used in an ELISA (VEPKVKSKKREAVAGRGRGRGRGRGRGRGRGRGGPRR; UniProt P62314 83-119, looked up, fragment)”, the “effect on the pathogenic process of Lupus-prone mice” value in the experiment on Lupus-prone mice is given as “accelerate the pathogenic process”.

These data come from patent US7833983B2, “Analytical method and kit thereof” (Phadia, AB, priority 2003, dated 2010).
